US8791264B2 (Purdue Pharma L.P., priority 2006, dated 2014)

Key:
[1] = target: T1, N-type calcium channel (NTCC) (Homo sapiens, UniProt Q00975); test: FLIPR calcium mobilization assay for N-type calcium channel; type: cell-based; conditions: calcium mobilization in vitro assay; differentiated IMR32 cells
T1 construct: host or cells: IMR32 cells differentiated with dibutyryl cAMP and bromodeoxyuridine
Summary of the method: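 Differentiated IMR32 cells (8 days, dibutyryl cAMP and BrdU) loaded with 3 μM Fluo-4 during 90 mM KCl pre-stimulation, with compound at about 846 pM to 17 μM plus 5 μM nitrendipine. After washes in compound, FLIPR read basal fluorescence 315 s, then 45 s after KCl addition (final 90 mM).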

[2] = target: T2, recombinant rat L-type calcium channel (LTCC) subunits (α1c, α2δ, and β1) (Rattus norvegicus, UniProt P22002); test: FLIPR calcium mobilization assay for L-type calcium channel; type: cell-based; conditions: calcium mobilization in vitro assay; HEK293 cells expressing rat LTCC
T2 construct: expressed in transfected cells
Method: Recombinant human embryonal kidney cells (HEK293, ATCC) stably transfected with either N-type calcium channel (NTCC) subunits (α1b, α2δ, and ⊖3) or L-type calcium channel (LTCC) subunits (α1, α2δ, and β1) were routinely cultured in growth medium consisting of Dulbecco's Modified Eagles Medium containing 10% FBS, 100 U/mL penicillin, 100 μg/mL streptomycin, 4 mM L-glutamine, 500 μg/mL geneticin (G418), 20 μg/mL Blasticidin S (InVivogen, San Diego, Calif.) and 500 μg/mL zeocin (InVivogen).
FLIPR Calcium Mobilization Assay for L-Type Calcium Channel.
One day prior to performing this assay, HEK293 cells stably expressing recombinant rat L-type calcium channel (LTCC) subunits (α1c, α2δ, and β1) were trypsinized, then seeded on poly-D-lysine-coated 96-well clear-bottom black plates (Becton Dickinson, Franklin Lakes, N.J.) at 75,000 cells/well. On the day of the assay, the plates were washed with LTCC wash buffer (127 mM NaCl, 2 mM MgCl2, 700 μM NaH2PO4, 5 mM CaCl2, 5 mM NaHCO3, 8 mM HEPES, 10 mM glucose, pH 7.4), then loaded with 0.1 mL of LTCC wash buffer containing Fluo-4 (3 μM final concentration, Molecular Probes, Eugene, Oreg.). After 1 hour, the cells were washed with 0.1 mL LTCC wash buffer and resuspended in 0.05 mL LTCC assay buffer (same composition as LTCC wash buffer). Plates were then transferred to a FLIPR^96 for assay. The FLIPR measured basal Fluo-4 fluorescence for 15 seconds, then is added 0.05 mL of each compound tested diluted in LTCC assay buffer at final concentrations ranging from about 846 pM to about 17 μM. Fluo-4 fluorescence was then measured for 5 minutes. 0.1 mL KCl agonist dissolved in LTCC assay buffer was then added to the cells to produce a final concentration of 90 mM KCl, and fluorescence was measured for another 45 seconds. Data were collected over the entire time course and analyzed using Excel, Graph Pad Prism, or an in-house regression analysis software.

T1 sequence (Q00975 whole entry): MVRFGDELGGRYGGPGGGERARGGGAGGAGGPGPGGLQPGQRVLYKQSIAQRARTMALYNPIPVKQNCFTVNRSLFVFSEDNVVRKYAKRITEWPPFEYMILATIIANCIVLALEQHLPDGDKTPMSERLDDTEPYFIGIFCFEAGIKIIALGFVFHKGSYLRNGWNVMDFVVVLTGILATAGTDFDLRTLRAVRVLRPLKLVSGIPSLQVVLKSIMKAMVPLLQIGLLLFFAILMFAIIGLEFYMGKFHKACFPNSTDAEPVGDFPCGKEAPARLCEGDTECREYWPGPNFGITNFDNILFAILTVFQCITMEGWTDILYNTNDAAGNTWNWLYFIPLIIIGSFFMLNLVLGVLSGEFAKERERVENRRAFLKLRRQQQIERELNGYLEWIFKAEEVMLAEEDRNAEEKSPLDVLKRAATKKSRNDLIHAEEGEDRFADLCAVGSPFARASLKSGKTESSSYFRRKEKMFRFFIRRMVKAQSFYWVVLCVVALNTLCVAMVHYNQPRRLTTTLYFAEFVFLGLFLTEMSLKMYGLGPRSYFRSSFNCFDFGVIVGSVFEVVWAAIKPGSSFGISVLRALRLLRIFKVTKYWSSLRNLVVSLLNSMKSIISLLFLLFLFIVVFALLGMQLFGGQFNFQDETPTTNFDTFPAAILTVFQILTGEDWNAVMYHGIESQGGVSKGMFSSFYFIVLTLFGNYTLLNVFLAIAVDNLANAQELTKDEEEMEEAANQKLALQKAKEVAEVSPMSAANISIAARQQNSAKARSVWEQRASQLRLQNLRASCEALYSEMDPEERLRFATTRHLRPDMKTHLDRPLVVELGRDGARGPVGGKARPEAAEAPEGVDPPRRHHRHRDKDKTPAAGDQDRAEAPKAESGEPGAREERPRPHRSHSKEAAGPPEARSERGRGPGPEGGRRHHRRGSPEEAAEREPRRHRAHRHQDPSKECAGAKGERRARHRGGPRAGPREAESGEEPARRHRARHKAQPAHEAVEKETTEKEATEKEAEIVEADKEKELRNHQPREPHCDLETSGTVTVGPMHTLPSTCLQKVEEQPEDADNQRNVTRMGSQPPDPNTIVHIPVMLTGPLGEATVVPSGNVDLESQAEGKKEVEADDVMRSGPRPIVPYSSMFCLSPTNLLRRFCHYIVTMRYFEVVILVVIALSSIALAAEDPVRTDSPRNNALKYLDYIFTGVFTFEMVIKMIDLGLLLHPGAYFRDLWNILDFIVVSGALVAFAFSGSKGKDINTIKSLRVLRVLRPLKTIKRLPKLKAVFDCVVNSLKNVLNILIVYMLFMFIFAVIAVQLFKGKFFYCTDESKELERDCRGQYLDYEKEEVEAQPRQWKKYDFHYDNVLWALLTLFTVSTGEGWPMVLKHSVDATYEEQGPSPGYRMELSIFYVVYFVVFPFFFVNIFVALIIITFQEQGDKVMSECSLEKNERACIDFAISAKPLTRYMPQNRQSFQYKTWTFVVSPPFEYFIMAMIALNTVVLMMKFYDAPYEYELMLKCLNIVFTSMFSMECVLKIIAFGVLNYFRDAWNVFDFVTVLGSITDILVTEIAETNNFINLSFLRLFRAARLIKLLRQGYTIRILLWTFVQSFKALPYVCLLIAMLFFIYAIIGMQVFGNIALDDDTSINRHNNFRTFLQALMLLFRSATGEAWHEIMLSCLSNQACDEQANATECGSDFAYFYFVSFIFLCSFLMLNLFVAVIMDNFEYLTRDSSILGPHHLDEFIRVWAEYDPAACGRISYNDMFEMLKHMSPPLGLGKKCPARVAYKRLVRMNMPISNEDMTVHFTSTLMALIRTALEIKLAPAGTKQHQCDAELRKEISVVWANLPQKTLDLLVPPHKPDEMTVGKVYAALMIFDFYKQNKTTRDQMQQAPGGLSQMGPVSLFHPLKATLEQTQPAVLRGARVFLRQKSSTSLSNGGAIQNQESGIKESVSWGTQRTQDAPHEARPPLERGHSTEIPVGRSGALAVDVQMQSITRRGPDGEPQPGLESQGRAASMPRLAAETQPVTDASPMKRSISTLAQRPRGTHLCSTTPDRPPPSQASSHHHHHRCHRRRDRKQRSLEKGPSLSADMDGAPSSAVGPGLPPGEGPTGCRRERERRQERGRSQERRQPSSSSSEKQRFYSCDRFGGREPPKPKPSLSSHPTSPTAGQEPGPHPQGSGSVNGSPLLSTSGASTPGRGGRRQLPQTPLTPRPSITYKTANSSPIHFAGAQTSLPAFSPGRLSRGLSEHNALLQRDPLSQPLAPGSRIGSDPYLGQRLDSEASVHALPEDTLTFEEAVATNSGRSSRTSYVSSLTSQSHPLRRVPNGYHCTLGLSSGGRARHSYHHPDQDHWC
T1 sequence (P54289 25-956 partner limits assumed): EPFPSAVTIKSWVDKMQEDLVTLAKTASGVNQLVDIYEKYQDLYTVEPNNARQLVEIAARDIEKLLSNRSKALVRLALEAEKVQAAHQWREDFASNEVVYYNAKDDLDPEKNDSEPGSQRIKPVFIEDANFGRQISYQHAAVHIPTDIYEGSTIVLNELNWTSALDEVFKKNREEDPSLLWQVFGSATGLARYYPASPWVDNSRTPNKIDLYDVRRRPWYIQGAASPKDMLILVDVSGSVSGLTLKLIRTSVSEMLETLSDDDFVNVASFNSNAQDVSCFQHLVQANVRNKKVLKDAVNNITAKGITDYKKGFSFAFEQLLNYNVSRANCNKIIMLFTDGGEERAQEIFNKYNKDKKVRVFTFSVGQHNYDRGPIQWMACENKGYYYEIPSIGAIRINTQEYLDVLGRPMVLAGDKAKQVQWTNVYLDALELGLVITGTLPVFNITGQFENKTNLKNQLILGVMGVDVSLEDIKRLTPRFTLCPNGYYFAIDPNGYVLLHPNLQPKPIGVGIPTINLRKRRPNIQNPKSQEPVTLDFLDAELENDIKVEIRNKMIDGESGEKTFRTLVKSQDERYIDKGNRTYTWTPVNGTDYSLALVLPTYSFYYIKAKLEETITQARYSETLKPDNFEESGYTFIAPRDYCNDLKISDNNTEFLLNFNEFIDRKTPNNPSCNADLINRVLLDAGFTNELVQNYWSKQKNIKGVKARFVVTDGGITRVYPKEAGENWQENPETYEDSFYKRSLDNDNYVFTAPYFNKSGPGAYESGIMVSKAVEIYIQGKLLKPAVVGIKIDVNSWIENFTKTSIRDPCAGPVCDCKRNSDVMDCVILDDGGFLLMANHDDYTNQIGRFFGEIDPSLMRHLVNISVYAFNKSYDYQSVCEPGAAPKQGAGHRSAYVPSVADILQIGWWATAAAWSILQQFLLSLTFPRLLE
T1 sequence (P54289 957-1103 partner limits assumed): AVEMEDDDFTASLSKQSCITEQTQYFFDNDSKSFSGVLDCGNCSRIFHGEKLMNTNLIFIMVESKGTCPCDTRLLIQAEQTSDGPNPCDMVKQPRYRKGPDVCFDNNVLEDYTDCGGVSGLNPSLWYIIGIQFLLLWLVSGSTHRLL
T1 sequence (P54284 whole entry partner): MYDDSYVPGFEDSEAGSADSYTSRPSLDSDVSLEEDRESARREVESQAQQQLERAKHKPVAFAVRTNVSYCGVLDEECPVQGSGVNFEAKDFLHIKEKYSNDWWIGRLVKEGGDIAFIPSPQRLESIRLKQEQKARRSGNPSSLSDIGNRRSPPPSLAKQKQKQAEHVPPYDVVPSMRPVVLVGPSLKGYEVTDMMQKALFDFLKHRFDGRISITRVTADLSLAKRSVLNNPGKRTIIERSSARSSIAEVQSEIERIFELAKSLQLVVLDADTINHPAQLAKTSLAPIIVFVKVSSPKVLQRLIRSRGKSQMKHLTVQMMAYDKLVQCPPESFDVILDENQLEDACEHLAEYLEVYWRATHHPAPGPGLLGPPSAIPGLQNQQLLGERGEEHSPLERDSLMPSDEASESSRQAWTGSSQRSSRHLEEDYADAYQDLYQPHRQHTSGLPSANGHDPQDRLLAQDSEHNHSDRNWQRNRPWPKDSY

Structure (SMILES)	IC50 [1]	IC50 [2]
N#Cc1cc(F)cc(NC(=O)CN2CCC(N(C3CC3)S(=O)(=O)c3cccc(C(F)(F)F)c3)CC2)c1 [Compound 81, N-(3-Cyano-5-fluorophenyl)-2-{4-[cyclopropyl-(3-trifluoromethyl-benzenesulfonyl)amino]-piperidin-1-yl}-acetamide]	360 nM	> 20000 nM
CC(C)N(C1CCN(C(=O)CN(CCO)Cc2ccccc2)CC1)S(=O)(=O)c1cccc(C(F)(F)F)c1 [Compound 103, N-(1-{2-[Benzyl-(2-hydroxyethyl)-amino]acetyl}-piperidin-4-yl)-N-isopropyl-3-trifluoromethylbenzenesulfonamide]	700 nM	7730 nM
CC(C)N(C1CCN(C(=O)CCNc2ccc(F)cc2Cl)CC1)S(=O)(=O)c1cccc(C(F)(F)F)c1 [N-{1-[3-(2-chloro-4-fluoro-phenylamino)-propionyl]-piperidin-4-yl}-N-isopropyl-3-trifluoromethyl-benzenesulfonamide]	820 nM	> 20000 nM
CC(C)N(C1CCN(C(=O)CCNc2ccc(F)cc2)CC1)S(=O)(=O)c1cccc(C(F)(F)F)c1 [N-{1-[3-(4-fluoro-phenylamino)-propionyl]-piperidin-4-yl}-N-isopropyl-3-trifluoromethyl-benzenesulfonamide]	530 nM	3220 nM
COc1ccc(CNCC(=O)N2CCC(N(C3CC3)S(=O)(=O)c3cccc(C(F)(F)F)c3)CC2)cc1 [Compound 99, N-Cyclopropyl-N-{1-[2-(4-methoxybenzylamino)acetyl]-piperidin-4-yl}-3-trifluoromethylbenzenesulfonamide]	350 nM	> 20000 nM
CN(C1CCN(CC(=O)Nc2ccc(F)cc2)CC1)S(=O)(=O)c1cccc(C(F)(F)F)c1 [Compound 51, N-(4-Fluorophenyl)-2-{4-[methyl-(3-trifluoromethylbenzenesulfonyl)-amino]-piperidin-1-yl}-acetamide]	700 nM	> 20000 nM
Cc1cccc(C)c1NC(=O)CN1CCC(N(C2CC2)S(=O)(=O)c2cccc(C(F)(F)F)c2)CC1 [Compound 58, 2-{4-[Cyclopropyl-(3-trifluoromethylbenzenesulfonyl)-amino]-piperidin-1-yl}-N-(2,6-dimethylphenyl)acetamide]	310 nM	5920 nM
CC(C)N(C1CCN(CC(=O)N(C)c2ccc(F)cc2)CC1)S(=O)(=O)c1cccc(C(F)(F)F)c1 [Compound 42j, N-(4-Fluorophenyl)-2-{4-[isopropyl-(3-trifluoromethyl-benzenesulfonyl)amino]-piperidin-1-yl}-N-methyl-acetamide]	330 nM	> 20000 nM
CC(C)N(C1CCN(CCCN(c2ccc(F)cc2)c2ccc(F)cc2)CC1)S(=O)(=O)c1cccc(C(F)(F)F)c1 [Compound 8, N-(1-{3-[Bis(4-fluorophenyl)amino]propyl}piperidin-4-yl)-N-isopropyl-3-trifluoromethylbenzenesulfonamide]	620 nM	> 20000 nM
CC(C)c1ccc(NC(=O)CN2CCC(N(C(C)C)S(=O)(=O)c3cccc(C(F)(F)F)c3)CC2)cc1 [Compound 42f, N-(4-Isopropylphenyl)-2-{4-[isopropyl-(3-trifluoromethylbenzenesulfonyl)amino]-piperidin-1-yl}-acetamide]	630 nM	> 20000 nM
O=C(Nc1ccc(F)cc1)C(=O)N1CCC(N(C2CC2)S(=O)(=O)c2cccc(C(F)(F)F)c2)CC1 [Compound 22, 2-{4-[Cyclopropyl-(3-trifluoromethylbenzenesulfonyl)amino]-piperidin-1-yl}-N-(4-fluorophenyl)-2-oxo-acetamide]	700 nM	> 20000 nM
COc1ccccc1NC(=O)CCN1CCC(N(C(C)C)S(=O)(=O)c2cccc(C(F)(F)F)c2)CC1 [Compound 107b, 3-{4-[Isopropyl-(3-trifluoromethylbenzenesulfonyl)amino]-piperidin-1-yl}-N-(2-methoxyphenyl)-propionamide]	670 nM	> 20000 nM
O=C(CN1CCC(N(C2CC2)S(=O)(=O)c2cccc(Cl)c2)CC1)Nc1ccc(F)cc1 [Compound 50, 2-{4-[(3-Chlorobenzenesulfonyl)cyclopropylamino]-piperidin-1-yl}-N-(4-fluorophenyl)acetamide]	840 nM	10000 to 20000 nM
O=C(CN1CCC(N(C2CC2)S(=O)(=O)c2cccc(C(F)(F)F)c2)CC1)Nc1ccccc1 [Compound 57, 2-{4-[Cyclopropyl-(3-trifluoromethylbenzenesulfonyl)-amino]-piperidin-1-yl}-N-phenyl-acetamide]	530 nM	> 20000 nM
COc1ccccc1CNCC(=O)N1CCC(N(C2CC2)S(=O)(=O)c2ccc(Cl)cc2)CC1 [Compound 101, 4-Chloro-N-cyclopropyl-N-{1-[2-(2-methoxybenzylamino)acetyl]-piperidin-4-yl}-benzenesulfonamide]	630 nM	8100 nM
CC(C)N(C1CCN(CC(=O)N(c2ccc(F)cc2)c2ccc(F)cc2)CC1)S(=O)(=O)c1cccc(C(F)(F)F)c1 [Compound 84, N,N-Bis-(4-fluorophenyl)-2-{4-[isopropyl-(3-trifluoromethyl-benzenesulfonyl)amino]-piperidin-1-yl}-acetamide]	320 nM	> 20000 nM
O=C(Nc1cc(C(F)(F)F)cc(C(F)(F)F)c1)N1CCC(N(C2CC2)S(=O)(=O)c2cccc(C(F)(F)F)c2)CC1 [Compound 111, 4-[Cyclopropyl-(3-trifluoromethylbenzenesulfonyl)amino]-piperidine-1-carboxylic acid (3,5-bis-trifluoromethylphenyl)-amide]	2320 nM	> 20000 nM
O=C(CN1CCC(N(C2CC2)S(=O)(=O)c2cccc(C(F)(F)F)c2)CC1)Nc1cc(Cl)cc(Cl)c1 [Compound 79, 2-{4-[Cyclopropyl-(3-trifluoromethylbenzenesulfonyl)amino]-piperidin-1-yl}-N-(3,5-dichlorophenyl)-acetamide]	860 nM	> 20000 nM
CC(C)N(C1CCN(CC(=O)Nc2ccc(F)cc2)CC1)S(=O)(=O)c1cccc(C(F)(F)F)c1 [Compound 44, N-(4-Fluorophenyl)-2-{4-[isopropyl-(3-trifluoromethylbenzenesulfonyl)amino]-piperidin-1-yl}-acetamide]	280 nM	2680 nM
CC(C)N(C1CCN(CC(=O)Nc2ccc(C#N)cc2)CC1)S(=O)(=O)c1cccc(C(F)(F)F)c1 [Compound 42g, N-(4-Cyanophenyl)-2-{4-[isopropyl-(3-trifluoromethylbenzenesulfonyl)amino]-piperidin-1-yl}-acetamide]	180 nM	2510 nM
O=C(CN1CCC(N(C2CC2)S(=O)(=O)c2cccc(C(F)(F)F)c2)CC1)Nc1cc(F)cc(F)c1 [Compound 74, 2-{4-[Cyclopropyl-(3-trifluoromethylbenzenesulfonyl)amino]-piperidin-1-yl}-N-(3,5-difluorophenyl)-acetamide]	370 nM	6600 nM
Cc1ccccc1NCCC(=O)N1CCC(N(C(C)C)S(=O)(=O)c2cccc(C(F)(F)F)c2)CC1 [N-isopropyl-N-[1-(3-o-tolylamino-propionyl)-piperidin-4-yl]-3-trifluoromethyl-benzenesulfonamide]	430 nM	5280 nM
CC(C)c1ccc(NC(=O)CN2CCC(N(C3CC3)S(=O)(=O)c3cccc(C(F)(F)F)c3)CC2)cc1 [Compound 59, 2-{4-[Cyclopropyl-(3-trifluoromethylbenzenesulfonyl)-amino]-piperidin-1-yl}-N-(4-isopropylphenyl)acetamide]	420 nM	10000 to 20000 nM
CC(C)(C)c1ccc(NC(=O)CN2CCC(N(C3CC3)S(=O)(=O)c3cccc(C(F)(F)F)c3)CC2)cc1 [Compound 56]	760 nM	> 20000 nM
CC(C)N(C1CCN(CC(=O)Nc2ccc(OC(F)(F)F)cc2)CC1)S(=O)(=O)c1cccc(C(F)(F)F)c1 [Compound 42l, 2-{4-[Isopropyl-(3-trifluoromethylbenzenesulfonyl)amino]-piperidin-1-yl}-N-(4-trifluoromethoxyphenyl)-acetamide]	250 nM	> 20000 nM
CCOc1cc(F)ccc1NC(=O)CN1CCC(N(C2CC2)S(=O)(=O)c2cccc(C(F)(F)F)c2)CC1 [Compound 70, 2-{4-[Cyclopropyl-(3-trifluoromethylbenzenesulfonyl)amino]-piperidin-1-yl}-N-(2-ethoxy-4-fluorophenyl)-acetamide]	920 nM	> 20000 nM
